Experimental data published in the CheMixHub viscosity set.

Assay: xn = mol fraction of the nth substance listed

CC1CCC(C)O1 (stereo not given) + Brc1ccccc1
viscosity [mPa·s], 101 kPa
Conditions | x1 = 0.0965 | x1 = 0.2006 | x1 = 0.3011 | x1 = 0.4016 | x1 = 0.4921
298.15 K | 1.003 | 0.941 | 0.8808 | 0.8196 | 0.7658
313.15 K | 0.833 | 0.7831 | 0.7338 | 0.6848 | 0.6411

CC1CCCO1 (stereo not given) + Brc1ccccc1
viscosity [mPa·s], 101 kPa
Conditions | x1 = 0.0991 | x1 = 0.1998 | x1 = 0.301 | x1 = 0.4046 | x1 = 0.5029
298.15 K | 1.007 | 0.9516 | 0.8942 | 0.8346 | 0.7773
313.15 K | 0.835 | 0.7895 | 0.7425 | 0.6943 | 0.6477

CC(C)CO + C1CCCCC1
303.15 K, 101.33 kPa
Conditions | viscosity [mPa·s]
x2 = 0.1485 | 1.976
x2 = 0.2985 | 1.513
x2 = 0.4515 | 1.185
x2 = 0.6051 | 0.962
x2 = 0.7417 | 0.839
x2 = 0.8981 | 0.762

CCOC(=O)CC + C1CCCCC1
viscosity [mPa·s], 101 kPa
Conditions | 298.15 K | 308.15 K
x1 = 0.0526 | 0.835 | 0.709
x1 = 0.1334 | 0.767 | 0.65
x1 = 0.2568 | 0.686 | 0.579
x1 = 0.3148 | 0.656 | 0.553
x1 = 0.4538 | 0.603 | 0.505
x1 = 0.4986 | 0.59 | 0.493
x1 = 0.5085 | 0.588 | 0.491
x1 = 0.6558 | 0.561 | 0.465
x1 = 0.7181 | 0.556 | 0.459
x1 = 0.8504 | 0.556 | 0.456
x1 = 0.9312 | 0.564 | 0.459

Cc1ccccc1O + C1CCCCC1
308.15 K, 101 kPa
Conditions | viscosity [mPa·s]
x1 = 0.0821 | 0.8505
x1 = 0.1618 | 0.9431
x1 = 0.2824 | 1.146
x1 = 0.3677 | 1.341
x1 = 0.4418 | 1.568
x1 = 0.5033 | 1.708
x1 = 0.5871 | 2.049
x1 = 0.7934 | 3.199
x1 = 0.8996 | 4.104

C=CC(=O)OC + C1CCOC1
viscosity [mPa·s], 101 kPa
Conditions | 293.15 K | 298.15 K | 303.15 K | 308.15 K | 313.15 K | 318.15 K
x2 = 0.0773 | 0.4982 | 0.4567 | 0.4181 | 0.3852 | 0.3553 | 0.3283
x2 = 0.1554 | 0.4934 | 0.454 | 0.4172 | 0.3854 | 0.3561 | 0.3294
x2 = 0.2064 | 0.4907 | 0.4527 | 0.4169 | 0.3858 | 0.3569 | 0.3304
x2 = 0.2545 | 0.4885 | 0.4517 | 0.417 | 0.3865 | 0.3579 | 0.3315
x2 = 0.3215 | 0.486 | 0.4508 | 0.4174 | 0.3878 | 0.3596 | 0.3333
x2 = 0.3989 | 0.4838 | 0.4505 | 0.4186 | 0.3898 | 0.362 | 0.3358
x2 = 0.4655 | 0.4826 | 0.4507 | 0.4201 | 0.392 | 0.3644 | 0.3382
x2 = 0.53 | 0.4819 | 0.4515 | 0.422 | 0.3945 | 0.3671 | 0.3409
x2 = 0.6023 | 0.4819 | 0.453 | 0.4246 | 0.3977 | 0.3706 | 0.3442
x2 = 0.6834 | 0.4826 | 0.4553 | 0.4282 | 0.4018 | 0.3748 | 0.3483
x2 = 0.7632 | 0.4841 | 0.4583 | 0.4323 | 0.4064 | 0.3795 | 0.3528
x2 = 0.8468 | 0.4865 | 0.4622 | 0.4372 | 0.4118 | 0.3849 | 0.3579
x2 = 0.9316 | 0.4899 | 0.467 | 0.4429 | 0.4177 | 0.3909 | 0.3634

C=CC(=O)OCCCC + C1CCOC1
viscosity [mPa·s], 101 kPa
Conditions | 293.15 K | 298.15 K | 303.15 K | 308.15 K | 313.15 K | 318.15 K
x2 = 0.0712 | 0.8609 | 0.8036 | 0.7505 | 0.7019 | 0.6569 | 0.6143
x2 = 0.1406 | 0.8246 | 0.7708 | 0.721 | 0.6751 | 0.6321 | 0.5913
x2 = 0.208 | 0.7908 | 0.7403 | 0.6935 | 0.65 | 0.609 | 0.5698
x2 = 0.2779 | 0.7572 | 0.71 | 0.6661 | 0.6249 | 0.5858 | 0.5482
x2 = 0.3685 | 0.7159 | 0.6727 | 0.6323 | 0.594 | 0.5571 | 0.5213
x2 = 0.4339 | 0.6875 | 0.6471 | 0.609 | 0.5727 | 0.5374 | 0.5028
x2 = 0.4996 | 0.6603 | 0.6225 | 0.5867 | 0.5522 | 0.5182 | 0.4848
x2 = 0.5642 | 0.6347 | 0.5995 | 0.5657 | 0.5328 | 0.5002 | 0.4677
x2 = 0.6426 | 0.6053 | 0.5729 | 0.5415 | 0.5104 | 0.4792 | 0.4478
x2 = 0.7208 | 0.5778 | 0.548 | 0.5187 | 0.4893 | 0.4592 | 0.4288
x2 = 0.7956 | 0.553 | 0.5256 | 0.4981 | 0.4701 | 0.4411 | 0.4115
x2 = 0.8642 | 0.5316 | 0.5063 | 0.4803 | 0.4534 | 0.4253 | 0.3964
x2 = 0.9322 | 0.5117 | 0.4882 | 0.4637 | 0.4378 | 0.4103 | 0.3819

CC(C)CO + C1COCCO1
298.15 K, 101 kPa
Conditions | viscosity [mPa·s]
x2 = 0.0416 | 2.787
x2 = 0.125 | 2.14
x2 = 0.2354 | 1.668
x2 = 0.3104 | 1.489
x2 = 0.4165 | 1.296
x2 = 0.4739 | 1.231
x2 = 0.5066 | 1.206
x2 = 0.5756 | 1.153
x2 = 0.5788 | 1.144
x2 = 0.7141 | 1.107
x2 = 0.7411 | 1.098
x2 = 0.7859 | 1.107
x2 = 0.832 | 1.099
x2 = 0.8845 | 1.109
x2 = 0.9419 | 1.131

CCCCCOC(C)=O + C1COCCO1
303.15 K, 101.3 kPa
Conditions | viscosity [mPa·s]
x2 = 0.0981 | 0.7721
x2 = 0.2981 | 0.8134
x2 = 0.505 | 0.8719
x2 = 0.7018 | 0.9452
x2 = 0.9003 | 1.037

Cc1ccccc1O + C1COCCO1
308.15 K, 101 kPa
Conditions | viscosity [mPa·s]
x2 = 0.1 | 4.947
x2 = 0.2 | 4.855
x2 = 0.3 | 4.267
x2 = 0.4 | 3.498
x2 = 0.5 | 2.795
x2 = 0.6 | 2.208
x2 = 0.7 | 1.764
x2 = 0.8 | 1.382
x2 = 0.9 | 1.163

CCCCCOC(C)=O + C=Cc1ccccc1
Conditions | viscosity [mPa·s]
298.15 K, 101 kPa, x2 = 0.103 | 0.802

CCn1cc[n+](C)c1.O=S(=O)([O-])C(F)(F)F + CC1COC(=O)O1
101 kPa
Conditions | viscosity [mPa·s]
298.15 K, x1 = 0.6987 | 21.65
303.15 K, x1 = 0.0999 | 3.915
303.15 K, x1 = 0.1999 | 5.315
303.15 K, x1 = 0.6987 | 18.45
308.15 K, x1 = 0.1999 | 4.575
313.15 K, x1 = 0.3998 | 6.675
318.15 K, x1 = 0.8998 | 17.65
323.15 K, x1 = 0.0999 | 2.425
323.15 K, x1 = 0.3998 | 5.115

Cc1ccccc1O + CC12CCC(CC1)C(C)(C)O2
viscosity [mPa·s], 101 kPa
Conditions | x2 = 0.0644 | x2 = 0.1341 | x2 = 0.2098 | x2 = 0.2923 | x2 = 0.3825 | x2 = 0.4817 | x2 = 0.5911 | x2 = 0.7125 | x2 = 0.8479
303.15 K | 6.716 | 7.057 | 7.387 | 7.431 | 7.201 | 6.63 | 5.917 | 4.949 | 3.732
308.15 K | 5.48 | 5.76 | 5.997 | 6.081 | 5.929 | 5.628 | 5.058 | 4.201 | 3.201
313.15 K | 4.569 | 4.81 | 4.944 | 5.041 | 5.032 | 4.696 | 4.12 | 3.359 | 2.48

C=CC(=O)OC + CC#N
viscosity [mPa·s], 100 kPa
Conditions | 293.15 K | 298.15 K | 303.15 K | 308.15 K | 313.15 K | 318.15 K
x2 = 0.0591 | 0.4934 | 0.4511 | 0.4118 | 0.3786 | 0.3488 | 0.3221
x2 = 0.1171 | 0.4832 | 0.4422 | 0.4042 | 0.3721 | 0.3431 | 0.3171
x2 = 0.17 | 0.474 | 0.4343 | 0.3976 | 0.3664 | 0.3383 | 0.313
x2 = 0.2356 | 0.4627 | 0.4247 | 0.3896 | 0.3597 | 0.3327 | 0.3083
x2 = 0.2977 | 0.4524 | 0.416 | 0.3824 | 0.3537 | 0.3278 | 0.3043
x2 = 0.3615 | 0.4422 | 0.4074 | 0.3754 | 0.348 | 0.3232 | 0.3007
x2 = 0.4343 | 0.431 | 0.398 | 0.3679 | 0.3419 | 0.3185 | 0.2971
x2 = 0.5014 | 0.4212 | 0.3899 | 0.3614 | 0.3368 | 0.3146 | 0.2943
x2 = 0.5738 | 0.4112 | 0.3818 | 0.3551 | 0.332 | 0.311 | 0.2918
x2 = 0.6537 | 0.4009 | 0.3736 | 0.349 | 0.3274 | 0.3078 | 0.2897
x2 = 0.7623 | 0.3881 | 0.3635 | 0.3417 | 0.3223 | 0.3046 | 0.2883
x2 = 0.8155 | 0.3823 | 0.3592 | 0.3387 | 0.3204 | 0.3037 | 0.2882
x2 = 0.9074 | 0.3729 | 0.3523 | 0.3342 | 0.3179 | 0.303 | 0.2889

C=CC(=O)OCCCC + CC#N
viscosity [mPa·s], 100 kPa
Conditions | 293.15 K | 298.15 K | 303.15 K | 308.15 K | 313.15 K | 318.15 K
x2 = 0.061 | 0.8625 | 0.8036 | 0.7492 | 0.6997 | 0.6541 | 0.611
x2 = 0.1168 | 0.8292 | 0.7725 | 0.7202 | 0.6725 | 0.6285 | 0.587
x2 = 0.1832 | 0.7901 | 0.7361 | 0.6864 | 0.641 | 0.5992 | 0.5596
x2 = 0.2571 | 0.7473 | 0.6964 | 0.6497 | 0.607 | 0.5677 | 0.5304
x2 = 0.3094 | 0.7174 | 0.6687 | 0.6241 | 0.5834 | 0.5459 | 0.5103
x2 = 0.3825 | 0.6761 | 0.6306 | 0.589 | 0.551 | 0.516 | 0.4829
x2 = 0.4563 | 0.6351 | 0.5928 | 0.5542 | 0.519 | 0.4866 | 0.4558
x2 = 0.5282 | 0.5958 | 0.5566 | 0.521 | 0.4885 | 0.4585 | 0.4301
x2 = 0.5779 | 0.569 | 0.532 | 0.4985 | 0.4678 | 0.4395 | 0.4126
x2 = 0.6483 | 0.5319 | 0.4979 | 0.4672 | 0.4391 | 0.4132 | 0.3886
x2 = 0.7299 | 0.49 | 0.4596 | 0.4322 | 0.4071 | 0.384 | 0.362
x2 = 0.8143 | 0.4484 | 0.4216 | 0.3977 | 0.3758 | 0.3556 | 0.3364
x2 = 0.9182 | 0.3998 | 0.3778 | 0.3584 | 0.3405 | 0.3241 | 0.3086
